Data reported in PMC6556873, “Rapid Covalent-Probe Discovery by Electrophile-Fragment Screening” (Journal of the American Chemical Society, 2019).
Read-outs that look alike come from different tables or passages of the source.

Legend:
in vitro [1] = assay: in vitro; parameters: species or system HB2, CCD841; details: human, hek293 cells
in vitro [2] = assay: in vitro; parameters: species or system HB2, HEK293; details: human, ccd841 cells
NNMT (hNNMT) = molecular target: T1, NNMT (hNNMT) (Homo sapiens, UniProt P40261); parameters: Intact protein LC/MS covalent labelling, fragments in pools of five, 200 uM each, 4 °C; details: 24 h, 4 °C, pool of five; 200 µM; covalent
T1 construct: wild type, N-terminal His6 tag kept (no cleavage described), E. coli, construct 31248 Da
T1 sequence (P40261 1-264): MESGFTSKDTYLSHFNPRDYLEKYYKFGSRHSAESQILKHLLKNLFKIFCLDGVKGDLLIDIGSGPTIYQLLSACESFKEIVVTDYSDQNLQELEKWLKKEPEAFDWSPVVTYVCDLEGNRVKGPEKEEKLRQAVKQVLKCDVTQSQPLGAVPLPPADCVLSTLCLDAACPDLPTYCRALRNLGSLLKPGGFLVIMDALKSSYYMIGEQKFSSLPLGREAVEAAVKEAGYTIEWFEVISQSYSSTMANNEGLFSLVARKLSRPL

PCAF = molecular target: T2, PCAF (Homo sapiens, UniProt Q92831); parameters: Intact protein LC/MS covalent labelling, fragments in pools of five, 200 uM each, 4 °C; details: 24 h, 4 °C, pool of five; 200 µM; covalent
T2 construct: gene KAT2B
T2 sequence (Q92831 whole entry, the tested form may be a part): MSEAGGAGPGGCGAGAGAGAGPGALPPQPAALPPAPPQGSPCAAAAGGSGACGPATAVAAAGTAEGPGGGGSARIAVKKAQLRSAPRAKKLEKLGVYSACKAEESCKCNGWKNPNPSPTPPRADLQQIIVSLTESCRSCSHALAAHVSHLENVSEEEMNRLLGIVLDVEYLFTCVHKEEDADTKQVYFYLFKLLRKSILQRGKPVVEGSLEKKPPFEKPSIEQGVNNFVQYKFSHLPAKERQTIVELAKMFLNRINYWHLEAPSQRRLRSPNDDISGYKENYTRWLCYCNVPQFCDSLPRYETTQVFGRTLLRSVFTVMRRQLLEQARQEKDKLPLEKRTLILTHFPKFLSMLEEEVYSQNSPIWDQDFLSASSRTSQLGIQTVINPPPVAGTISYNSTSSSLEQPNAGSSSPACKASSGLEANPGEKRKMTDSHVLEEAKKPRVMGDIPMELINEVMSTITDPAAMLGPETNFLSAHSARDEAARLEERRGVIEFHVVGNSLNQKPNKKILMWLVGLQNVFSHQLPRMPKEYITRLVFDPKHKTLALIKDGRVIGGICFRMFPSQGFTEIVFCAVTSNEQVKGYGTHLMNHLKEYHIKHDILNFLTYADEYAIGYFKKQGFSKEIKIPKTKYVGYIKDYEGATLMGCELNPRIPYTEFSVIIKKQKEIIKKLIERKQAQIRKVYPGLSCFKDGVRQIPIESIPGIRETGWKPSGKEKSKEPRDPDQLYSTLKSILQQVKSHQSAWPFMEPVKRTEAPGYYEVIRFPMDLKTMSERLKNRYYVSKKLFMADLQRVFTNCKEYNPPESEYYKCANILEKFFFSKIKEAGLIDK

BSA = molecular target: T3, BSA (Bos taurus, UniProt P02769); parameters: Intact protein LC/MS covalent labelling, fragments in pools of five, 200 uM each, 4 °C; details: 24 h, 4 °C, pool of five; 200 µM; covalent
T3 construct: gene ALB
T3 sequence (P02769 whole entry, the tested form may be a part): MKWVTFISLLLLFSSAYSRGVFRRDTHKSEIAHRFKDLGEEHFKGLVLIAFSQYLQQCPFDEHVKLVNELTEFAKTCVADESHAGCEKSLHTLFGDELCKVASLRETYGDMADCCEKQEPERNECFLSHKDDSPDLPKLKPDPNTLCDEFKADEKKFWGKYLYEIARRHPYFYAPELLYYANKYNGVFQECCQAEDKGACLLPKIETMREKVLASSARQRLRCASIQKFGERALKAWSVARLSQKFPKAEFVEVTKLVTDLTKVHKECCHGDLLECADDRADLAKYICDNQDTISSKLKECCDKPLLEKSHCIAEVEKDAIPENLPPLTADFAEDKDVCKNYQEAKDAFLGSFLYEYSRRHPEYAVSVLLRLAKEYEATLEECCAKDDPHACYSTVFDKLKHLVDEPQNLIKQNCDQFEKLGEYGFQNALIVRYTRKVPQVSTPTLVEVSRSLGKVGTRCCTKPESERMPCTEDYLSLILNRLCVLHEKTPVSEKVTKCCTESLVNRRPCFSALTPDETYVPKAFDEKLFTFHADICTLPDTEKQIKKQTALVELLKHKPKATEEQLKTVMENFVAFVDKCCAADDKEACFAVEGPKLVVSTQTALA

OTUB2 (OTUB2A) = molecular target: T4, OTUB2 (OTUB2A) (Homo sapiens, UniProt Q96DC9); parameters: Intact protein LC/MS covalent labelling, fragments in pools of five, 200 uM each, 4 °C; details: 24 h, 4 °C, pool of five; 200 µM; covalent
T4 construct: full length residues 1-234, E. coli BL21(DE3)-R3, His tag removed by TEV, construct 27312 Da
T4 sequence (Q96DC9 1-234): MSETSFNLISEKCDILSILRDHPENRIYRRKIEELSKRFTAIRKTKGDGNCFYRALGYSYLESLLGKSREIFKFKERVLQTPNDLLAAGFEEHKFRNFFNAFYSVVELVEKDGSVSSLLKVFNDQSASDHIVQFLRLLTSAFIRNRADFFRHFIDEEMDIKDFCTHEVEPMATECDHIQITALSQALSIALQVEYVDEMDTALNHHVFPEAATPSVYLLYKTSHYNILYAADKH

NUDT7 = molecular target: T5, NUDT7 (Homo sapiens, UniProt P0C024); parameters: Intact protein LC/MS covalent labelling, fragments in pools of five, 200 uM each, 4 °C; details: 24 h, 4 °C, pool of five; 200 µM; covalent
T5 construct: residues 14-235, E. coli, pNIC28-Bsa4, N-terminal His6 tag removed by TEV, construct 26672 Da
T5 sequence (P0C024 14-235): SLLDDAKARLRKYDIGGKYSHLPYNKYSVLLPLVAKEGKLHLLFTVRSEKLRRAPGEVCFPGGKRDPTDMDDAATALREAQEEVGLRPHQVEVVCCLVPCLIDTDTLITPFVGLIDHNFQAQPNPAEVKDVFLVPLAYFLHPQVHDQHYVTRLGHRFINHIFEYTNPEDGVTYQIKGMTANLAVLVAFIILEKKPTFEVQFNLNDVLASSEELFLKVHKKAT

in vitro [3] = assay: in vitro; parameters: species or system CCD841, HEK293; details: human, hb2 cells, read-out: HB-2 Cells Viability (%)

Row | Compound | viability at 48 h, 10 µM (in vitro [1]) [%] | viability at 48 h, 10 µM (in vitro [2]) [%] | NNMT (NNMT (hNNMT)) | PCAF (PCAF) | BSA (BSA) | OTUB2 (OTUB2 (OTUB2A)) | NUDT7 (NUDT7) | viability at 48 h, 10 µM (in vitro [3]) [%]
1 | COC(=O)c1cccc(NC(=O)CCl)c1 [PCM-0103048] | 5.1 | 34.7 | 0.2 | 0 | 0 | 0.87 | 0 | 17.7
2 | C=CC(=O)N1CCCN(C(=O)c2cc(Cl)cn2C)CC1 [PCM-0103003] | 96.7 | 101 | 0 | 0 | 0 | 0 | 0 | 105
3 | O=C(CCl)N=c1sccn1Cc1cccc2ccccc12 [PCM-0102842] | 5.2 | 4.2 | 0 | 0 | 0 | 0 | 0 | 8.4
4 | O=C(CCl)N1CCNCC1.O=C(O)C(F)(F)F [PCM-0102476] | 92.4 | 100 | 0 | 0 | 0 | 0 | 0 | 101
5 | CN(CC1CC1)C(=O)CCl [PCM-0102714] | 88.3 | 84.8 | 0 | 0 | 0 | 0 | 0 | 97
6 | C=CC(=O)N1CCCC(n2nc(C)nc2C)C1 (stereo not drawn) [PCM-0102479] | 98.5 | 111 | 0 | 0 | 0 | 0 | 0 | 101
7 | N#Cc1ccc(C(=O)NNC(=O)CCl)cc1 [PCM-0102892] | 103 | 85.9 | 0 | 0 | 0 | 0.14 | 0 | 86.2
8 | O=C(CCl)N1CCOC1=O [PCM-0102943] | 108 | 109 | 0 | 0 | 0 | 0 | 0.08 | 101
9 | CN(Cc1ccc2c(c1)OCCO2)C(=O)CCl [PCM-0102958] | 52 | 81 | 0 | 0 | 0 | 0.09 | 0.27 | 74.4
10 | Cc1ccc(S(N)(=O)=O)cc1NC(=O)CCl [PCM-0102744] | 19.7 | 61.4 | 0.17 | 0 | 0 | 0.1 | 0 | 54.4
11 | CC(C)N(C(=O)CCl)c1ccccc1 [PCM-0102272] | 16 | 17.7 | 0 | 0 | 0 | 0 | 0.22 | 58.6
12 | CC(C)c1ccc(NC(=O)CCl)cc1 [PCM-0102532] | 7.1 | 40.4 | 0.68 | 0 | 0 | 0.33 | 0.18 | 12.7
13 | Cc1oc(NC(=O)CCl)c(C#N)c1C [PCM-0102337] | 82.9 | 56.4 | 0.53 | 0 | 0 | 0.45 | 0 | 56.5
14 | O=C(CCl)NN1C(=O)NC2(CCCCC2)C1=O [PCM-0102424] | 103 | 94.7 | 0 | 0 | 0 | 0 | 0.06 | 95
15 | C=CC(=O)NC1CCN(c2ccccc2C(F)(F)F)C1 (stereo not drawn) [PCM-0102731] | 69.7 | 104 | 0 | 0 | 0 | 0 | 0 | 100
16 | C=CC(=O)N1CCC(Oc2cnc3ccccc3n2)CC1 [PCM-0102925] | 86.8 | 102 | 0 | 0 | 0 | 0 | 0 | 107
17 | NS(=O)(=O)c1ccccc1NC(=O)CCl [PCM-0102903] | 69.7 | 55.2 | 0 | 0 | 0 | 0.14 | 0.29 | 65.4
18 | CN(C)C(=O)CN(C)C(=O)CCl [PCM-0102632] | 89.7 | 114 | 0 | 0 | 0 | 0.14 | 0 | 102
19 | O=C(CCl)Nc1cccc(Cl)c1 [PCM-0102198] | 1.8 | 41.1 | 0 | 0 | 0 | 0.37 | 0.28 | 9
20 | O=C(CCl)N(C1CCCC1)C1CC1 [PCM-0103064] | 74 | 87.8 | 0 | 0 | 0 | 0 | 0 | 102
21 | O=C1CN(C(=O)CCl)C2(CCCCC2)C(=O)N1 [PCM-0102139] | 96.3 | 95.8 | 0 | 0 | – | 0.05 | 0.22 | 98.9
22 | O=C(CCl)N1CCN(C(=O)C2CC2)CC1 [PCM-0102970] | 66.6 | 72.5 | 0 | 0 | – | 0 | 0.07 | 83.8
23 | C=CC(=O)N1CCC(c2nc3cccc(C)c3o2)CC1 [PCM-0102530] | 94 | 101 | 0 | 0 | – | 0 | 0 | 108
24 | N#Cc1ccc(CNC(=O)CCl)cc1 [PCM-0102946] | 88.1 | 74.8 | 0.23 | 0 | – | 0.35 | 0 | 85
25 | C=CC(=O)N1CCCC1c1cccc2c1OCCO2 (stereo not drawn) [PCM-0102489] | 89.9 | 99.1 | 0 | 0 | – | 0 | 0 | 96.3
